Source: PubChem BioAssay (NCI)
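Cells were grown in 96-well plates and exposed to each compound for 48 hours at five concentrations; endpoints were interpolated linearly between bracketing concentrations, or set to the highest concentration if not reached. GI50: concentration for 50% inhibition of growth. The concentration for full growth arrest is given as TGI.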

Legend:
Test in all cases: DTP human tumour cell line panel, 48 h
[1] = system: OVCAR-4 ovarian
[2] = system: A498 renal
[3] = system: CAKI-1 renal
[4] = system: U251 CNS
[5] = system: SK-MEL-28 melanoma
[6] = system: NCI-H522 lung
[7] = system: SNB-75 CNS
[8] = system: HCT-15 colon
[9] = system: KM12 colon
[10] = system: T-47D breast

SMILES | TGI [1] [µM] | TGI [2] [µM] | TGI [3] [µM] | TGI [4] [µM] | TGI [5] [µM] | TGI [6] [µM] | TGI [7] [µM] | TGI [8] [µM] | TGI [9] [µM] | TGI [10] [µM] | GI50 [1] [µM] | GI50 [2] [µM] | GI50 [3] [µM] | GI50 [4] [µM] | GI50 [5] [µM] | GI50 [6] [µM] | GI50 [7] [µM] | GI50 [8] [µM] | GI50 [9] [µM] | GI50 [10] [µM]
COC(=O)/C(=C/c1ccc(OC)cc1)c1cc(OC)c(OC)c(OC)c1 | > 100 | > 39 | > 100 | 39 | > 100 | 4.58 | 5.77 | > 100 | 71 | > 100 |  |  |  |  |  |  |  |  |  | 
COc1cc(/C=C/C(=O)c2c(-c3ccc(Cl)cc3)nc3sc(C)nn23)cc(OC)c1OC | > 100 | > 100 | > 100 | > 100 | > 100 | 8.8 | 33.7 | > 100 | > 100 | 13.5 | 31.8 | 51.9 | 54 | 17.1 | > 100 | 2.94 | 12.8 | 15.8 | 21.6 | 2.56
COc1ccc(S(=O)(=O)NCCCNc2nccc(-c3c(-c4ccc(F)cc4)nc4sccn34)n2)cc1 | 27.2 | 8.37 | > 100 | > 100 | > 100 | > 100 | 7.41 | > 100 | > 100 | 71.3 | 3.07 | 1.21 | 6.72 | 7.26 | 9.5 | 5.02 | 1.56 | 3.6 | 5.07 | 3.24
O=C1OC(c2ccccc2)=N/C1=C\c1ccc(N(CCCl)CCCl)cc1 | > 100 | > 100 | > 100 | > 100 | > 100 | > 95.7 | > 100 | > 100 | > 100 | > 84.8 |  |  |  |  |  |  |  |  |  | 
Cn1c(=O)c(Oc2ccc(F)cc2F)cc2cnc(NC3CCC(O)CC3)nc21 (stereo not given) | > 25 | > 25 | > 25 | > 25 | > 25 | > 25 | > 25 | > 25 | > 25 | > 25 | > 25 | 5.89 | > 25 | > 25 | > 25 | > 25 | > 25 | > 25 | > 25 | > 25
CC(C)c1nc(Cl)c(Cl)c(Cl)n1 | 39.1 | 52 | 11.8 | 12.8 | 40.5 | 8.64 | 25.8 | 17.7 | 23.3 | 42.7 |  |  |  |  |  |  |  |  |  | 
COc1ccc(C[C@H](N)C(=O)N[C@@H]2[C@@H](CO)OC(n3cnc4c(N(C)C)ncnc43)[C@@H]2O)cc1 (stereo not given in full) | 0.926 | 1.09 | 16.6 | 0.507 | 1.13 | 0.493 | 1.23 | 29.9 | 1.08 | 0.565 | 0.194 | 0.189 | 4.44 | 0.136 | 0.479 | 0.126 | 0.143 | 6.63 | 0.363 | 0.137
CCC(=C(c1ccc(OCCN(CC)CC)cc1)c1ccc(OCCN(CC)CC)cc1)c1ccc(Cl)cc1 | 1.66 | 1.66 | 0.984 | 1.14 | 1.09 | 1.21 | 2.32 | 1.08 | 1.18 | 1.39 | 0.714 | 0.591 | 0.515 | 0.57 | 0.592 | 0.564 | 0.668 | 0.541 | 0.611 | 0.574
Brc1ccc2c(c1)-c1ccccc1C1=NCCN12 | 8.53 | 2.36 | 7.92 | 11.1 | 3.63 | 2.75 | 4.15 | 10.8 | 11.3 | 18.4 | 1.43 | 0.866 | 1.52 | 1.24 | 1.8 | 0.762 | 1.53 | 0.68 | 1.02 | 2.85
COc1cccc2c(Nc3ccc(C(=O)NCCN4CCNCC4)cc3)cc(-c3ccccc3)nc12 | 74.2 | > 100 | > 100 | > 100 | 64.7 | 30.5 | > 100 | > 100 | > 100 | > 100 | 17.4 | > 100 | > 100 | 34.8 | 19 | 15.8 | 33.2 | 57.8 | 30.8 | 29.4
CS(=O)(=O)Nc1ccc(Nc2c3ccccc3nc3cc(Cl)ccc23)cc1 | 21.7 | 7.22 | 8.68 | 13.5 | 19.2 | 15.4 | 15.9 | 14.2 | 18.5 | 13.3 | 3.84 | 1.15 | 0.397 | 0.828 | 3.62 | 2.33 | 1.29 | 1.37 | 3.81 | 0.987
